Results: publication PMC8514580, “Insight into the interaction between the RNA helicase CGH-1 and EDC-3 and its implications” (Scientific Reports, 2021)
Numbering of substitutions follows the chain as printed. No end group written: not given here.

T1: CGH-1_248-420^WT (Caenorhabditis elegans, UniProt Q95YF3)
T1 construct: the cDNA fragments encoding CGH-1 RecA2 (residues 248–420); made in house; host or cells: E. coli Gold (DE3)
T1 sequence (Q95YF3 248-420): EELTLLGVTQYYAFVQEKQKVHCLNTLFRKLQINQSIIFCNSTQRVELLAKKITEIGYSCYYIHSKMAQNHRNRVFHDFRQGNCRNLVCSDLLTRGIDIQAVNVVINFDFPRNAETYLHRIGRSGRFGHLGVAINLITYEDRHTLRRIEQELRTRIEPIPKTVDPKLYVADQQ

T2: CGH-1_248-420^4A (Caenorhabditis elegans, UniProt Q95YF3, C270A/H269A/L274A/T273A)
T2 construct: the cDNA fragments encoding CGH-1 RecA2 (residues 248–420); made in house; host or cells: E. coli Gold (DE3)
T2 sequence (Q95YF3 248-420 H269A/C270A/T273A/L274A limits assumed): T1 sequence (Q95YF3 248-420) with H22A, C23A, T26A, L27A

B1: CAR-1_184–268: recombinant CAR-1 FDF-TFG (residues 184–268) (protein)
chain: LKFESDFDFEKANEKFQEVLVDNLEKLNIEDKAEPEVEEKKDAAFYDKKTSFFDNISCESLEKAEGKTGRPDWKKERETNQETFG
modifications: left off: His tag (from the modified vector pET-28a), end not stated, state not stated

Columns and labels:
CGH-1_248-420^WT = target: T1, CGH-1_248-420^WT; assay: ITC binding to CGH-1_248–420 WT; set-up: species or system C. elegans; conditions: for − TΔS: 20 °C, pH 7.5, 150 mM NaCl
Description: (§1) Expression plasmids regarding CGH-1 and CAR-1 were constructed as previously described. In brief, the cDNA fragments encoding CGH-1 RecA2 (residues 248–420), CAR-1 FDF-TFG (residues 184–268) were amplified by PCR from C. elegans genome library and cloned into the NdeI and XhoI site of a modified pET-28a (Novagen) vector (p28a), in which a thrombin protease cleavage site was removed.
(§2) CGH-1 protein expression and purification were performed described as in our most recent paper. In brief, proteins were expressed in E. coli Gold (DE3) strain (Novagen). […] Cells were resuspended in Buffer A (20 mM Tris–HCl, pH 7.5, 1 M NaCl), and then lysed using high pressure at 4 °C. Proteins were initially purified by Ni-chelating resin (Qiagen), and further purified by size exclusion chromatography (SEC) on a Superdex 75 column (GE healthcare) in Buffer A. The purified proteins were dialyzed into Buffer B (20 mM Tris–HCl, pH 7.5, 150 mM NaCl).
(§3) A peptide containing the C. elegans EDC-3 FDF fragment (residues 235–271) and PATR-1 fragment (residues 30–67) were synthesized from GL Biochem (Shanghai, China) Co., Ltd, respectively. Stock solutions of peptide were prepared in Buffer B described above, and were adjusted to pH 7.5 ± 0.02 for subsequent experiments.
(§4) ITC assays were performed as previously described. In brief, it was carried out on a MicroCal PEAQ-ITC (Malvern) at 20 °C with the following settings: reference power, 5 μcal/s; initial delay, 60 s; stir speed, 750 rpm; spacing time, 120 s. Proteins (or its mutants) and peptides were adjusted to 0.05 mM and 0.5 mM, respectively. Experiments were initialed by injection of 1 μl each of peptide into the sample cell (200 μl) filled with protein (or its mutants) solution, followed by 18 injections of 2 μl. The ITC data were fitted with a one-binding-site model using the Origin analysis software.

CGH-1_248-420^Q266A = target: T3, CGH-1_248-420^Q266A (Caenorhabditis elegans, UniProt Q95YF3, Q266A); assay: ITC binding to CGH-1_248–420 Q266A; set-up: species or system C. elegans; conditions: 20 °C, pH 7.5, 150 mM NaCl, CGH-1 Q266A
T3 construct: the cDNA fragments encoding CGH-1 RecA2 (residues 248–420); made in house; host or cells: E. coli Gold (DE3)
T3 sequence (Q95YF3 248-420 Q266A): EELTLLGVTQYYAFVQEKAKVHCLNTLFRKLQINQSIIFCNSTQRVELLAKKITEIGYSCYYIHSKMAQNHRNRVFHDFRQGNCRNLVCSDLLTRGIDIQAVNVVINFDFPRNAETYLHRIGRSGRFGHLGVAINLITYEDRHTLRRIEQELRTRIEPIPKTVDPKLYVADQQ
Description: as §1, §2, §3
(§5) ITC assays were performed as previously described. […]

CGH-1_248-420^H269A = target: T4, CGH-1_248-420^H269A (Caenorhabditis elegans, UniProt Q95YF3, H269A); assay: ITC binding to CGH-1_248–420 H269A; set-up: species or system C. elegans; conditions: 20 °C, pH 7.5, 150 mM NaCl, CGH-1 H269A
T4 construct: the cDNA fragments encoding CGH-1 RecA2 (residues 248–420); made in house; host or cells: E. coli Gold (DE3)
T4 sequence (Q95YF3 248-420 H269A): as the sequence (Q95YF3 248-420 Q266A) above, with A19Q, H22A counted along it
Description: as §1, §2, §3, §5

CGH-1_248-420^F261A = target: T5, CGH-1_248-420^F261A (Caenorhabditis elegans, UniProt Q95YF3, F261A); format: binding, C. elegans; conditions: ITC, 20 °C, pH 7.5, 150 mM NaCl; CGH-1 F261A
T5 construct: the cDNA fragments encoding CGH-1 RecA2 (residues 248–420); made in house; host or cells: E. coli Gold (DE3)
T5 sequence (Q95YF3 248-420 F261A): as the sequence (Q95YF3 248-420 Q266A) above, with F14A, A19Q counted along it
Description: as §1, §2, §3, §4

CGH-1_248-420^K277A = target: T6, CGH-1_248-420^K277A (Caenorhabditis elegans, UniProt Q95YF3, K277A); format: binding, C. elegans; conditions: ITC, 20 °C
T6 construct: the cDNA fragments encoding CGH-1 RecA2 (residues 248–420); made in house; host or cells: E. coli Gold (DE3)
T6 sequence (Q95YF3 248-420 K277A): as the sequence (Q95YF3 248-420 Q266A) above, with A19Q, K30A counted along it
Description: as §1, §2, §3, §4

CGH-1_248-420^R393A = target: T7, CGH-1_248-420^R393A (Caenorhabditis elegans, UniProt Q95YF3, R393A); format: binding, C. elegans; conditions: ITC, 20 °C
T7 construct: the cDNA fragments encoding CGH-1 RecA2 (residues 248–420); made in house; host or cells: E. coli Gold (DE3)
T7 sequence (Q95YF3 248-420 R393A): as the sequence (Q95YF3 248-420 Q266A) above, with A19Q, R146A counted along it
Description: as §1, §2, §3, §4

CGH-1_248-420^K277E = target: T8, CGH-1_248-420^K277E (Caenorhabditis elegans, UniProt Q95YF3, K277E); assay: ITC binding to CGH-1_248–420 K277E; set-up: species or system C. elegans; conditions: 20 °C
T8 construct: the cDNA fragments encoding CGH-1 RecA2 (residues 248–420); made in house; host or cells: E. coli Gold (DE3)
T8 sequence (Q95YF3 248-420 K277E): as the sequence (Q95YF3 248-420 Q266A) above, with A19Q, K30E counted along it
Description: as §1, §2, §3, §5

CGH-1_248-420^E396A = target: T9, CGH-1_248-420^E396A (Caenorhabditis elegans, UniProt Q95YF3, E396A); assay: ITC binding to CGH-1_248–420 E396A; set-up: species or system C. elegans; conditions: 20 °C
T9 construct: the cDNA fragments encoding CGH-1 RecA2 (residues 248–420); made in house; host or cells: E. coli Gold (DE3)
T9 sequence (Q95YF3 248-420 E396A): as the sequence (Q95YF3 248-420 Q266A) above, with A19Q, E149A counted along it
Description: as §1, §2, §3, §5

CGH-1_248-420^4A = target: T2, CGH-1_248-420^4A; assay: ITC binding to CGH-1_248–420 4A (H269A, C270A, T273A, L274A); set-up: species or system C. elegans; conditions: CGH-1 4A vs WT
Description: as §1, §2, §3, §4

CGH-1_248–420 mutants = assay: ITC binding to several CGH-1_248–420 single mutants; set-up: species or system C. elegans; conditions: substitution of each of Phe261, Gln266, His269 with Ala
Description: as §1, §2, §3, §5

[1] = system: CGH-1_248–420 binding to GST-EDC-3_230–566; assay: GST-pulldown competition, CGH-1_248–420 binding to GST-EDC-3_230–566; set-up: species or system C. elegans; conditions: PBS, 2 h, same amount of CAR-1_184–268 and CGH-1_248–420 (50 μg)
Description: To investigate whether CAR-1_184–268 can affect CGH-1_248–420 binding to EDC-3_230–566, approximate 100 μg GST-tagged EDC-3_230–566 was incubated with GST resin, followed by three times of wash in PBS. The resin was then incubated with 50 μg CGH-1_248–420 in the absence or presence of the same amount of CAR-1_184–268 for 2 h, followed by five times of PBS wash, and captured proteins were finally analyzed as described above.
To investigate whether C. elegans PATR-1 peptide will affect the CGH-1 binding to GST-tagged EDC-3_230–566 protein, approximate 100 μg GST-tagged EDC-3_230–566 was incubated with GST resin, followed by three times of wash in PBS. The resin was then incubated with 50 μg CGH-1_248–420 without PATR-1 peptide (0 μM) or with varied concentration of PATR-1 peptide (12.5, 25, or 50 μM) for 2 h, and was washed five times in PBS. The captured proteins in resin were finally heated and analyzed using 12% SDS-PAGE.

Molecule	Kd (CGH-1_248-420^WT)	− TΔS (CGH-1_248-420^WT; ITC, CGH-1_248–420 WT)	binding affinity of EDC-3 FDF-FEK motif relative to corresponding region of CAR-1 (by KD) (CGH-1_248-420^WT; ITC, CGH-1_248–420, 0.34 μM (this work) vs 43 μM (ref 17))	binding affinity relative to CAR-1_184–268 (by KD) (CGH-1_248-420^WT; ITC, CGH-1_248–420 WT, 0.34 μM vs 3.03 μM)	− TΔS (CGH-1_248-420^Q266A)	− TΔS (CGH-1_248-420^H269A)	− TΔS (CGH-1_248-420^F261A)	− TΔS (CGH-1_248-420^K277A; pH 7.5, 150 mM NaCl, CGH-1 K277A)	KD(mut) / KD(wt) (CGH-1_248-420^K277A; CGH-1 K277A vs WT)	− TΔS (CGH-1_248-420^R393A; pH 7.5, 150 mM NaCl, CGH-1 R393A)	KD(mut) / KD(wt) (CGH-1_248-420^R393A; CGH-1 R393A vs WT)	KD(mut) / KD(wt) (CGH-1_248-420^K277E; CGH-1 K277E vs WT)	− TΔS (CGH-1_248-420^K277E; pH 7.5, 150 mM NaCl, CGH-1 K277E)	KD(mut) / KD(wt) (CGH-1_248-420^E396A; CGH-1 E396A vs WT)	− TΔS (CGH-1_248-420^E396A; pH 7.5, 150 mM NaCl, CGH-1 E396A)	KD(mut) / KD(wt) (CGH-1_248-420^4A; 20 °C)	binding affinity compared to wildtype (in words) (CGH-1_248-420^4A)	binding affinity compared to wildtype (in words) (CGH-1_248-420^4A; listed as EDC-3 peptide)	weakening of binding affinity, factor vs WT (CGH-1_248–420 mutants)	effect on binding of CGH-1_248–420 to EDC-3_230–566 [1]
LADPIDFDLDSDFDFAENLKLFEKDENDDQYYETVEK [EDC-3_235–271]	340 ± 20 nM	8.94 kcal/mol	> 126 times	approximately ninefold stronger	4.34 kcal/mol	4.97 kcal/mol	6.17 kcal/mol	7.74 kcal/mol	~ 8.1	9.68 kcal/mol	~ 6.1	~ 17.5	4.48 kcal/mol	~ 2.5	7.92 kcal/mol	~ 25.7	dramatically impaired the binding affinity	dramatically disrupted the interaction	3.4–7.5	–
B1	–	19.6 kcal/mol	–	–	–	–	–	–	–	–	–	–	–	–	–	–	–	–	–	little or no effect
